Like-named read-outs stand apart in the source and are kept apart here.
Assays:
[1] = tested on: JAK1-dependent STAT6 phosphorylation downstream of IL-13 stimulation in BEAS-2B human bronchial epithelial cells; test: JAK1 pathway assay in BEAS-2B cells (IL-13-pSTAT6, MSD); type: cell-based; details: BEAS-2B cells, IL-13 stimulation, read-out: IL-13 p-STAT6 BEAS-2B IC50
[2] = biological target: isolated recombinant JAK2 kinase domain (Homo sapiens (Human), UniProt O60674); test: JAK2 enzyme assay (Caliper LabChip, Ki); type: biochemical
isolated recombinant JAK2 kinase domain, sequence (O60674 849-1124): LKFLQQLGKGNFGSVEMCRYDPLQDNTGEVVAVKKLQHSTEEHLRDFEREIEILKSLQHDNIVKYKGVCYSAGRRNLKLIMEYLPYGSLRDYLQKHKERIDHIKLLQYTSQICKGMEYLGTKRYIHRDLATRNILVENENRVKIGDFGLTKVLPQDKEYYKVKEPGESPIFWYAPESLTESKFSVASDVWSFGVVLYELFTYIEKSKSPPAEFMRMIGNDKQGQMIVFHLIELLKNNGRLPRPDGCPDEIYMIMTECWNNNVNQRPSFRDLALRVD
How it was run: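 Recombinant human JAK1 or JAK2 kinase domain phosphorylating a 5-carboxyfluorescein-labelled JAK3-derived peptide; 30 min at 22 °C, stopped with EDTA (50 mM final). Phosphorylated product measured as a fraction of total peptide by Caliper LabChip mobility shift.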

[3] = biological target: isolated recombinant JAK1 kinase domain (Homo sapiens (Human), UniProt P23458); test: JAK1 enzyme assay (Caliper LabChip, Ki); type: biochemical; details: read-out: JAK1 Ki
isolated recombinant JAK1 kinase domain, sequence (P23458 875-1153): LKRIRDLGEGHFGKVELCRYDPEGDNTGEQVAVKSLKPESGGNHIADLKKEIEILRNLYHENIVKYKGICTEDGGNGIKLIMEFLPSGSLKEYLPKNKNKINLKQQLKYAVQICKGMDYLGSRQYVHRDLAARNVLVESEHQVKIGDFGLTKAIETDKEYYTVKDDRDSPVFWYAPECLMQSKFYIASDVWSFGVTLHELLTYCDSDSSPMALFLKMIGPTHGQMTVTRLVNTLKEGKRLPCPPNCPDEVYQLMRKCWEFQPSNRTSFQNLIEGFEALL
How it was run: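 Recombinant human JAK1 kinase domain phosphorylating an N-terminally 5-carboxyfluorescein-labelled JAK3-derived peptide, 30 min at 22 °C, stopped with EDTA (50 mM final). Phosphorylated fraction of total peptide read by Caliper LabChip mobility shift; Ki from Morrison tight-binding fit corrected for ATP competition (Ki=Ki,app/(1+[ATP]/Km,app)).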

SMILES	IC50 ([1]; Homo sapiens, BEAS-2B) [nM]	Ki [2] [nM]	Ki [3] [nM]	IC50 [1] [nM]
N#CCC1(n2cc(C(N)=O)c(NC(=O)C3CC3)n2)CCN(Cc2ccc(C#CC3CC3)cc2)CC1 [Example 299, 1-(4-(Cyanomethyl)-1-(4-(cyclopropylethynyl)benzyl)piperidin-4-yl)-3-(cyclopropanecarboxamido)-1H-pyrazole-4-carboxamide]	85	3	1.1	
COC(=O)Nc1nn(C2(CC#N)CCN(Cc3ccc(-c4csc(C)n4)cc3)CC2F)cc1C(N)=O (stereo not drawn) [Example 249, methyl N-[4-carbamoyl-1-[4-(cyanomethyl)-3-fluoro-1-[[4-(2-methylthiazol-4-yl)phenyl]methyl]-4-piperidyl]pyrazol-3-yl]carbamate]	26	0.56	0.52	
N#CCC1(n2cc(C(N)=O)c(NC(=O)C3CC3)n2)CCN(Cc2ccc(-c3ccccc3)c(O)c2)CC1 [Example 11, 1-(4-(Cyanomethyl)-1-((2-hydroxy-[1,1′-biphenyl]-4-yl)methyl)piperidin-4-yl)-3-(cyclopropanecarboxamido)-1H-pyrazole-4-carboxamide]	383	1	0.4	
CCc1ccc(-c2ccc(CN3CCC(CC#N)(n4cc(C(N)=O)c(NC(=O)OC)n4)C(F)C3)cc2)o1 (stereo not drawn) [Example 232, methyl N-[4-carbamoyl-1-[4-(cyanomethyl)-1-[[4-(5-ethyl-2-furyl)phenyl]methyl]-3-fluoro-4-piperidyl]pyrazol-3-yl]carbamate]	20	0.89	0.32	
N#CCC1(n2cc(C(N)=O)c(NC(=O)C3CC3)n2)CCC(Oc2ccc(-c3ccccc3)cc2)CC1 (single isomer, unassigned) [Example 211, 1-(4-([1,1′-Biphenyl]-4-yloxy)-1-(cyanomethyl)cyclohexyl)-3-(cyclopropanecarboxamido)-1H-pyrazole-4-carboxamide]		4.6	0.74	26
CC(OC(=O)N1CCC(CC#N)(n2cc(C(N)=O)c(NC(=O)C3CC3)n2)CC1)C1CC1 (stereo not drawn) [Example 182, 1-cyclopropylethyl 4-[4-carbamoyl-3-(cyclopropanecarbonylamino)pyrazol-1-yl]-4-(cyanomethyl)piperidine-1-carboxylate]	675	50.7	4.7	
COC(=O)Nc1nn(C2(CC#N)CCN(Cc3ccc(C4=CCCCC4)nc3F)CC2F)cc1C(N)=O (stereo not drawn) [Example 264, methyl N-[4-carbamoyl-1-[4-(cyanomethyl)-1-[[6-(cyclohexen-1-yl)-2-fluoro-3-pyridyl]methyl]-3-fluoro-4-piperidyl]pyrazol-3-yl]carbamate]	88	1.4	0.79	
COC(=O)Nc1nn(C2(CC#N)CCN(Cc3cnc(-c4ccccc4)cc3F)CC2F)cc1C(N)=O (stereo not drawn) [Example 251, methyl N-[4-carbamoyl-1-[4-(cyanomethyl)-3-fluoro-1-[(4-fluoro-6-phenyl-3-pyridyl)methyl]-4-piperidyl]pyrazol-3-yl]carbamate]	30	0.3	0.34	
CCc1ccc(-c2ccc(CN3CCC(CC#N)(n4cc(C(N)=O)c(NC(=O)C5CC5)n4)CC3)cc2)cc1 [Example 155, 1-[4-(cyanomethyl)-1-[[4-(4-ethylphenyl)phenyl]methyl]-4-piperidyl]-3-(cyclopropanecarbonylamino) pyrazole-4-carboxamide]	60	7.3	0.6	
CCc1ccc(-c2ccc(CN3CCC(CC#N)(n4cc(C(N)=O)c(NC(=O)C5CC5C#N)n4)C(F)C3)cc2O)cc1 (stereo not drawn) [Example 222, 3-[(2-cyanocyclopropanecarbonyl)amino]-1-[4-(cyanomethyl)-1-[[4-(4-ethylphenyl)-3-hydroxy-phenyl]methyl]-3-fluoro-4-piperidyl]pyrazole-4-carboxamide]		0.43	0.18	52
CCOC(=O)Nc1nn(C2(CC#N)CCN(Cc3ccc(-c4ccccc4)c(O)c3)CC2)cc1C(N)=O [Example 187, ethyl N-[4-carbamoyl-1-[4-(cyanomethyl)-1-[(3-hydroxy-4-phenyl-phenyl)methyl]-4-piperidyl]pyrazol-3-yl]carbamate]	74	3.1	0.52	
N#CCC1(n2cc(C(N)=O)c(NC(=O)C3CC3)n2)CCN(Cc2ccc(-c3cccc(F)c3)cc2)CC1 [Example 143, 1-[4-(cyanomethyl)-1-[[4-(3-fluorophenyl)phenyl]methyl]-4-piperidyl]-3-(cyclopropanecarbonylamino) pyrazole-4-carboxamide]	49	5.5	0.7	
CC1(Oc2ccc(OC(F)F)cc2)CN(C2CCC(CC#N)(n3cc(C(N)=O)c(NC(=O)C4CC4)n3)CC2)C1 (stereo not drawn) [Example 291, 1-[1-(cyanomethyl)-4-[3-[4-(difluoromethoxy)phenoxy]-3-methyl-azetidin-1-yl]cyclohexyl]-3-(cyclopropanecarbonylamino) pyrazole-4-carboxamide]	54	2.1	0.86	
COC(=O)Nc1nn(C2(CC#N)CCN(Cc3ccc(C4=CCCCC4)cc3)CC2F)cc1C(N)=O (stereo not drawn) [Example 257, methyl N-[4-carbamoyl-1-[4-(cyanomethyl)-1-[[4-(cyclohexen-1-yl)phenyl]methyl]-3-fluoro-4-piperidyl]pyrazol-3-yl]carbamate]	52	1.3	0.73	
COCc1cccc(-c2ccc(CN3CCC(CC#N)(n4cc(C(N)=O)c(NC(=O)C5CC5)n4)CC3)cc2)c1 [Example 157, 1-[4-(cyanomethyl)-1-[[4-[3-(methoxymethyl)phenyl]phenyl]methyl]-4-piperidyl]-3-(cyclopropanecarbonylamino) pyrazole-4-carboxamide]	104	13.7	1.6	
CCOC(=O)Nc1nn(C2(CC#N)CCN(Cc3ccc(-n4nccn4)cc3)CC2F)cc1C(N)=O (stereo not drawn) [Example 225, ethyl N-[4-carbamoyl-1-[4-(cyanomethyl)-3-fluoro-1-[[4-(triazol-2-yl)phenyl]methyl]-4-piperidyl]pyrazol-3-yl]carbamate]	44	1.3	0.62	
N#CCC1(n2cc(C(N)=O)c(NC(=O)C3CC3)n2)CCC(Nc2ccc(C3=CCCC3)cc2)CC1 (stereo not drawn) [Example 275, 1-[1-(cyanomethyl)-4-[4-(cyclopenten-1-yl)anilino]cyclohexyl]-3-(cyclopropanecarbonylamino) pyrazole-4-carboxamide]	52	8.1	1.1	
C=C(C)c1ccc(CN2CCC(CC#N)(n3cc(C(N)=O)c(NC(=O)C4CC4)n3)C(F)C2)cc1 (stereo not drawn) [Example 259, 1-[4-(cyanomethyl)-3-fluoro-1-[(4-isopropenylphenyl)methyl]-4-piperidyl]-3-(cyclopropanecarbonylamino) pyrazole-4-carboxamide]	50	1.8	0.84	
N#CCC1(n2cc(C(N)=O)c(NC(=O)C3CC3)n2)CCN(CC(F)(F)F)CC1 [Example 23]	250	19.4	4.5	
COC(=O)Nc1nn(C2(CC#N)CCN(Cc3ccc(-c4ccoc4)c(O)c3)CC2F)cc1C(N)=O (stereo not drawn) [Example 244, methyl N-[4-carbamoyl-1-[4-(cyanomethyl)-3-fluoro-1-[[4-(3-furyl)-3-hydroxy-phenyl]methyl]-4-piperidyl]pyrazol-3-yl]carbamate]	67	0.37	0.2	
N#CCC1(n2cc(C(N)=O)c(NC(=O)C3CC3C#N)n2)CCN(Cc2ccc(-c3ccccc3)cc2F)CC1F (stereo not drawn) [Example 218, 3-[(2-cyanocyclopropanecarbonyl)amino]-1-[4-(cyanomethyl)-3-fluoro-1-[(2-fluoro-4-phenyl-phenyl)methyl]-4-piperidyl]pyrazole-4-carboxamide]		0.59	0.35	28
N#CC[C@]1(n2cc(C(N)=O)c(NC(=O)C3CC3)n2)CC[C@@H](N2CC(O)(C(F)(F)F)C2)CC1 [Example 137, 1-[1-(cyanomethyl)-4-[3-hydroxy-3-(trifluoromethyl)azetidin-1-yl]cyclohexyl]-3-(cyclopropanecarbonylamino) pyrazole-4-carboxamide]	> 1000	21.7	2.7	
CCc1nc(-c2ccc(CN3CCC(CC#N)(n4cc(C(N)=O)c(NC(=O)OC)n4)C(F)C3)cc2)cs1 (stereo not drawn) [Example 252, methyl N-[4-carbamoyl-1-[4-(cyanomethyl)-1-[[4-(2-ethylthiazol-4-yl)phenyl]methyl]-3-fluoro-4-piperidyl]pyrazol-3-yl]carbamate]	22	0.52	0.3	
COC(=O)Nc1nn(C2(CC#N)CCN(Cc3ccc(-c4ccccc4)c(O)c3)CC2F)cc1C(N)=O (stereo not drawn) [Example 195, methyl N-[4-carbamoyl-1-[4-(cyanomethyl)-3-fluoro-1-[(3-hydroxy-4-phenyl-phenyl)methyl]-4-piperidyl]pyrazol-3-yl]carbamate]	15	0.15	0.11	
CS(=O)(=O)Nc1cc(F)cc(CN2CCC(CC#N)(n3cc(C(N)=O)c(NC(=O)C4CC4)n3)CC2)c1 [Example 80]	> 1000	3.6	1.2	

From US11731943B2, “Therapeutic compounds, compositions and methods of use thereof” (priority 2016, dated 2023)
